From patent US20250018047A1, “METHODS AND COMPOSITIONS FOR TARGETED PROTEIN DEGRADATION” (Ranok Therapeutics (Hangzhou) Co. Ltd., priority 2021, published 2025)

Legend:
KRAS(G12D)/SOS1 = target: T1, KRAS(G12D)/SOS1 (Homo sapiens, UniProt P01116, G12D); assay: KRAS(G12D)/SOS1 homogeneous time-resolved fluorescence (HTRF) assay; type: binding; details: absence of GTP, 4° C. for 3 hr
T1 construct: purchased Cisbio 63ADK000CB16PEG
Method: The test compound was mixed and incubated with reaction components, incubated in a sealed plate at 4° C. for 3 hr and fluorescence was measured using a PerkinElmer Envision plate reader.

[1] = system: A-427 human lung carcinoma; assay: CellTiter-Glo cancer cell line proliferation assay, A-427; type: cell-based; details: Homo sapiens, A-427, 24 hr, read-out: A427 at 24 hrs, IC50
Method: (§1) Cell lines were cultured according to ATCC and recommendations.
(§2) CellTiter-Glo® Reagent Cancer Cell Line Proliferation Assays
(§3) Cells were plated in 96-well tissue culture plates at 4,000 cells/well and incubated at 37° C./5% CO2 for 24 hr in 100 μl of media. […] Cells were then treated with test compounds at various concentrations with a final concentration of 0.5% DMSO/well, and then incubated at 37° C./5% CO2 for 24 hr. 100 μl of CellTiter-Glo® Reagent (Promega Corporation, Madison, WI) was added to each well and processed according manufacturer's protocol. Results were analyzed and IC50-values were calculated in GraphPad 7 software.

[2] = system: AsPC-1 human pancreatic adenocarcinoma; assay: CellTiter-Glo cancer cell line proliferation assay, AsPC-1; type: cell-based; details: Homo sapiens, ASPC1, 24 hr
Method: as §1, §2, §3

T1 sequence (P01116 1-188 isoform P01116-2 G12D): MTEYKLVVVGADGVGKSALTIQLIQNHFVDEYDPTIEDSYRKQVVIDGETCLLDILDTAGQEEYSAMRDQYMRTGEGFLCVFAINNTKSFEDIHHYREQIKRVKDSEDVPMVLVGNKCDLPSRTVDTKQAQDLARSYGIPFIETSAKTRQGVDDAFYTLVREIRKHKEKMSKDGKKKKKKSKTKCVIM

With `O=C1CCC(N2C(=O)c3ccc(N4CCN(C(=O)C5CCN(CC6(COc7nc(N8CC9CCC(C8)N9)c8cnc(-c9cc(O)cc%10ccccc9%10)c(F)c8n7)CC6)CC5)CC4)cc3C2=O)C(=O)N1` (stereo not drawn) [Compound 76] the IC50 (KRAS(G12D)/SOS1) was < 0.1 µM and the IC50 [1] was > 1 µM.

In the case of `CN1C[C@H](C2CCC(C(=O)NCCOc3ccc4c(c3)C(=O)N(C3CCC(=O)NC3=O)C4=O)CC2)C[C@@H]1COc1nc(N2CC3CCC(C2)N3)c2cnc(-c3cc(O)cc4ccccc34)c(F)c2n1` (stereo partly drawn) [Compound 53], the IC50 (KRAS(G12D)/SOS1) is reported as < 0.1 µM and the IC50 [1] is reported as > 1 µM.

In the case of `C#Cc1c(F)ccc2cc(O)cc(-c3ncc4c(N5CC6CCC(C5)N6C(=O)C(F)(F)F)nc(OCC5(CN6CCN(CC7CCN(c8ccc9c(c8)CN(C8CCC(=O)NC8=O)C9=O)CC7)CC6)CC5)nc4c3F)c12` (stereo not drawn) [Compound 108], the IC50 (KRAS(G12D)/SOS1) is reported as < 0.1 µM.

For `C#Cc1c(F)ccc2cc(O)cc(-c3ncc4c(N5CC6CCC(C5)N6)nc(OCC5(CN6CCC(CN7CCC(c8ccc(NC9CCC(=O)NC9=O)cc8)CC7)CC6)CC5)nc4c3F)c12` (stereo not drawn) [Compound 113], the IC50 (KRAS(G12D)/SOS1) was < 0.1 µM.

With `C#Cc1c(F)ccc2cc(O)cc(-c3ncc4c(N5CC6CCC(C5)N6)nc(OCC5(CN6CCN(Cc7ccc8c(c7)C(=O)N(C7CCC(=O)NC7=O)C8=O)CC6)CC5)nc4c3F)c12` (stereo not drawn) [Compound 64] the IC50 (KRAS(G12D)/SOS1) was < 0.1 µM and the IC50 [1] was > 1 µM.

With `C#Cc1c(F)ccc2cc(O)cc(-c3ncc4c(N5CCN(C(=O)C=C)[C@@H](CC#N)C5)nc(OCC5(CN6CCN(CC7CCN(c8ccc9c(c8)CN(C8CCC(=O)NC8=O)C9=O)CC7)CC6)CC5)nc4c3F)c12` (stereo partly drawn) [Compound 109] the IC50 (KRAS(G12D)/SOS1) was < 0.1 µM.

For `Cc1cccc2cccc(-c3ncc4c(N5CC6CCC(C5)N6)nc(OCC5(CN6CCN(CC7CCN(c8ccc9c(c8)C(=O)N(C8CCC(=O)NC8=O)C9=O)CC7)CC6)CC5)nc4c3F)c12` (stereo not drawn) [Compound 58], the IC50 (KRAS(G12D)/SOS1) was < 0.1 µM.

In the case of `C#Cc1c(F)ccc2cc(O)cc(-c3ncc4c(N5CC6CCC(C5)N6C(=O)CC#N)nc(OCC5(CN6CCN(CC7CCN(c8ccc9c(c8)CN(C8CCC(=O)NC8=O)C9=O)CC7)CC6)CC5)nc4c3F)c12` (stereo not drawn) [Compound 110], the IC50 (KRAS(G12D)/SOS1) is reported as < 0.1 µM.

For `C#Cc1cccc2cc(O)cc(-c3ncc4c(N5CC6CCC(C5)N6)nc(OCC5(CN6CCN(Cc7ccc8c(c7)C(=O)N(C7CCC(=O)NC7=O)C8=O)CC6)CC5)nc4c3F)c12` (stereo not drawn) [Compound 65], the IC50 (KRAS(G12D)/SOS1) was < 0.1 µM and the IC50 [1] was > 1 µM.

With `C#Cc1cccc2cc(O)cc(-c3nc(OC)c4c(N5CC6CCC(C5)N6C)nc(OCC5(CN6CCN(CC7CCN(c8ccc9c(c8)CN(C8CCC(=O)NC8=O)C9=O)CC7)CC6)CC5)nc4c3F)c12` (stereo not drawn) [Compound 105] the IC50 (KRAS(G12D)/SOS1) was < 0.1 µM and the IC50 [2] was > 1 µM.

`CN1[C@@H](COc2nc(N3CC4CCC(C3)N4)c3cnc(-c4cc(O)cc5ccccc45)c(F)c3n2)CC[C@H]1CN1CCN(CC2CCN(c3ccc4c(c3)C(=O)N(C3CCC(=O)NC3=O)C4=O)CC2)CC1` (stereo partly drawn) [Compound 60] was tested, and the IC50 (KRAS(G12D)/SOS1) was < 0.1 µM and the IC50 [1] was > 1 µM.

With `O=C1CCC(N2Cc3cc(N4CCC(CN5CCN(CC6(COc7nc(N8CC9CCC(C8)N9)c8cnc(-c9cc(O)cc%10ccccc9%10)c(F)c8n7)CC6)CC5)CC4)ccc3C2=O)C(=O)N1` (stereo not drawn) [Compound 52] the IC50 (KRAS(G12D)/SOS1) was < 0.1 µM and the IC50 [1] was 0.1 to 1 µM.

`CN1C[C@H](N2CCC(C(=O)Nc3ccc4c(c3)CN(C3CCC(=O)NC3=O)C4=O)CC2)C[C@@H]1COc1nc(N2CC3CCC(C2)N3)c2cnc(-c3cccc4cccc(Cl)c34)c(F)c2n1` (stereo partly drawn) [Compound 49] gave an IC50 (KRAS(G12D)/SOS1) of 0.1 to 1 µM.

For `C#Cc1cccc2cc(O)cc(-c3ncc4c(N5CC6CCC(C5)N6)nc(OC[C@H]5CC[C@@H](CN6CCN(CC7CCN(c8ccc9c(c8)C(=O)N(C8CCC(=O)NC8=O)C9=O)CC7)CC6)N5C)nc4c3F)c12` (stereo partly drawn) [Compound 68], the IC50 (KRAS(G12D)/SOS1) was < 0.1 µM and the IC50 [1] was > 1 µM.

`C#Cc1cccc2cc(O)cc(-c3ncc4c(N5CC6CCC(C5)N6)nc(OCC5(CN6CCN(Cc7ccc8c(c7)CN(C7CCC(=O)NC7=O)C8=O)CC6)CC5)nc4c3F)c12` (stereo not drawn) [Compound 61] was tested, and the IC50 (KRAS(G12D)/SOS1) was < 0.1 µM and the IC50 [1] was 0.1 to 1 µM.

For `C#Cc1c(F)ccc2cc(O)cc(-c3ncc4c(N5CC6CCC(C5)N6)nc(OCC5(CN6CCC7(CC6)CN(c6ccc8c(c6)CN(C6CCC(=O)NC6=O)C8=O)C7)CC5)nc4c3F)c12` (stereo not drawn) [Compound 116], the IC50 (KRAS(G12D)/SOS1) was < 0.1 µM.

In the case of `CN(CC1CCN(c2ccc3c(c2)C(=O)N(C2CCC(=O)NC2=O)C3=O)CC1)CC1(COc2nc(N3CC4CCC(C3)N4)c3cnc(-c4cc(O)cc5ccccc45)c(F)c3n2)CC1` (stereo not drawn) [Compound 75], the IC50 (KRAS(G12D)/SOS1) is reported as < 0.1 µM and the IC50 [1] is reported as > 1 µM.

`C#Cc1cccc2cccc(-c3ncc4c(N5CC6CCC(C5)N6)nc(OC[C@H]5CC[C@@H](CN6CCN(CC7CCN(c8cc9c(cc8F)C(=O)N(C8CCC(=O)NC8=O)C9=O)CC7)CC6)N5C)nc4c3F)c12` (stereo partly drawn) [Compound 55] was tested, and the IC50 (KRAS(G12D)/SOS1) was < 0.1 µM and the IC50 [1] was > 1 µM.

For `C#Cc1cccc2cc(O)cc(-c3ncc4c(N5CC6CCC(C5)N6)nc(OC[C@H]5CC[C@@H](CN6CCN(CC7CCN(c8ccc9c(c8)CN(C8CCC(=O)NC8=O)C9=O)CC7)CC6)N5C)nc4c3F)c12` (stereo partly drawn) [Compound 69], the IC50 (KRAS(G12D)/SOS1) was < 0.1 µM and the IC50 [1] was > 1 µM.

With `C#Cc1c(F)ccc2cc(O)cc(-c3ncc4c(N5CC6CCC(C5)N6)nc(OCC5(CN6CC7(C6)CN(c6ccc8c(c6)CN(C6CCC(=O)NC6=O)C8=O)C7)CC5)nc4c3F)c12` (stereo not drawn) [Compound 117] the IC50 (KRAS(G12D)/SOS1) was < 0.1 µM.

With `C#Cc1cccc2cccc(-c3ncc4c(N5CC6CCC(C5)N6)nc(OC[C@H]5C[C@@H](N6CCN(CCC7CCN(c8ccc9c(c8)C(=O)N(C8CCC(=O)NC8=O)C9=O)CC7)CC6)CN5C)nc4c3F)c12` (stereo partly drawn) [Compound 74] the IC50 (KRAS(G12D)/SOS1) was < 0.1 µM and the IC50 [1] was > 1 µM.

With `C#Cc1c(F)ccc2cc(O)cc(-c3nc(OC)c4c(N5CCN(C)[C@@H](CC#N)C5)nc(OCC5(CN6CCN(CC7CCN(c8ccc9c(c8)CN(C8CCC(=O)NC8=O)C9=O)CC7)CC6)CC5)nc4c3F)c12` (stereo partly drawn) [Compound 106] the IC50 (KRAS(G12D)/SOS1) was < 0.1 µM and the IC50 [2] was > 1 µM.

`C#Cc1c(F)ccc2cc(O)cc(-c3nc(OC)c4c(N5CC6CCC(C5)N6)nc(OCC5(CN6CCN(C7CCN(c8ccc9c(c8)C(=O)N(C8CCC(=O)NC8=O)C9=O)CC7)CC6)CC5)nc4c3F)c12` (stereo not drawn) [Compound 115] was tested, and the IC50 (KRAS(G12D)/SOS1) was < 0.1 µM.

`CN1CC(N2CCC(C(=O)NCCOCCOc3ccc4c(c3)C(=O)N(C3CCC(=O)NC3=O)C4=O)CC2)C[C@@H]1COc1nc(N2CC3CCC(C2)N3)c2cnc(-c3cc(O)cc4ccccc34)c(F)c2n1` (stereo partly drawn) [Compound 54] was tested, and the IC50 (KRAS(G12D)/SOS1) was < 0.1 µM and the IC50 [1] was > 1 µM.

For `C#Cc1c(F)ccc2cc(O)cc(-c3ncc4c(N5CC6CCC(C5)N6)nc(OCC5(CN6CCC7(CC6)CCN(c6ccc8c(c6)CN(C6CCC(=O)NC6=O)C8=O)CC7)CC5)nc4c3F)c12` (stereo not drawn) [Compound 114], the IC50 (KRAS(G12D)/SOS1) was < 0.1 µM.

For `C#Cc1cccc2cccc(-c3ncc4c(N5CC6CCC(C5)N6)nc(OC[C@H]5CC[C@@H](CN6CCN(CCC7CCN(c8ccc9c(c8)C(=O)N(C8CCC(=O)NC8=O)C9=O)CC7)CC6)N5C)nc4c3F)c12` (stereo partly drawn) [Compound 62], the IC50 (KRAS(G12D)/SOS1) was < 0.1 µM and the IC50 [1] was 0.1 to 1 µM.

For `COc1cc(-c2ncc3c(N4CC5CCC(C4)N5)nc(OCC4(CN5CCN(CC6CCN(c7ccc8c(c7)CN(C7CCC(=O)NC7=O)C8=O)CC6)CC5)CC4)nc3c2F)c2ccccc2c1` (stereo not drawn) [Compound 70], the IC50 (KRAS(G12D)/SOS1) was > 1 µM and the IC50 [1] was > 1 µM.

In the case of `C#Cc1cccc2cccc(-c3ncc4c(N5CC6CCC(C5)N6)nc(OCC5(CN(C)CC6CCN(c7ccc8c(c7)C(=O)N(C7CCC(=O)NC7=O)C8=O)CC6)CC5)nc4c3F)c12` (stereo not drawn) [Compound 67], the IC50 (KRAS(G12D)/SOS1) is reported as < 0.1 µM and the IC50 [1] is reported as 0.1 to 1 µM.

For `Cc1cccc(-c2ncc3c(N4CC5CCC(C4)N5)nc(OCC4(CN5CCN(CC6CCN(c7ccc8c(c7)C(=O)N(C7CCC(=O)NC7=O)C8=O)CC6)CC5)CC4)nc3c2F)c1C` (stereo not drawn) [Compound 63], the IC50 (KRAS(G12D)/SOS1) was < 0.1 µM and the IC50 [1] was > 1 µM.
